# PubChem BioAssay (NCI)
#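 Cells were grown in 96-well plates and exposed to each compound for 48 hours at five concentrations; endpoints were interpolated linearly between bracketing concentrations, or set to the highest concentration if not reached. The concentration for 50% growth inhibition is given as GI50. TGI: total growth inhibition.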
# How the values were obtained:
# Assay in all cases: DTP human tumour cell line panel, 48 h
# [1] = test system: HCT-15 colon
# [2] = test system: UACC-257 melanoma
# [3] = test system: OVCAR-5 ovarian
# [4] = test system: A498 renal
# [5] = test system: NCI/ADR-RES ovarian
# [6] = test system: RPMI-8226 leukemia
# [7] = test system: HS 578T breast
# [8] = test system: CCRF-CEM leukemia
# [9] = test system: MDA-MB-231 breast
# [10] = test system: MCF7 breast
# [11] = test system: SK-MEL-2 melanoma
# [12] = test system: RXF 393 renal
# [13] = test system: HOP-62 NSCLC
# [14] = test system: K-562 leukemia
# [15] = test system: KM12 colon
# [16] = test system: SK-MEL-5 melanoma
# [17] = test system: SF-295 CNS
# [18] = test system: SK-OV-3 ovarian
# [19] = test system: EKVX NSCLC
# [20] = test system: SNB-75 CNS
# [21] = test system: OVCAR-4 ovarian
# [22] = test system: IGROV1 ovarian
# [23] = test system: NCI-H23 lung
# [24] = test system: SN12C renal
# [25] = test system: BT-549 breast
# [26] = test system: U251 CNS
# [27] = test system: OVCAR-3 ovarian
# [28] = test system: NCI-H522 lung
# [29] = test system: OVCAR-8 ovarian
# [30] = test system: COLO 205 colon
# [31] = test system: HL-60(TB) leukemia
# [32] = test system: SNB-19 CNS
# [33] = test system: UO-31 renal
# [34] = test system: SW-620 colon
# [35] = test system: NCI-H460 lung
# [36] = test system: PC-3 prostate
# [37] = test system: HT29 colon
# [38] = test system: LOX IMVI melanoma
# [39] = test system: HCC-2998 colon
# [40] = test system: 786-0 renal
# [41] = test system: M14 melanoma
# [42] = test system: ACHN renal
# [43] = test system: UACC-62 melanoma
# [44] = test system: HOP-92 NSCLC
# [45] = test system: DU-145 prostate
# [46] = test system: TK-10 renal
# [47] = test system: MDA-MB-435
# [48] = test system: A549 NSCLC
# [49] = test system: SF-539 CNS
# [50] = test system: SK-MEL-28 melanoma
# [51] = test system: MOLT-4 leukemia
# [52] = test system: T-47D breast
# [53] = test system: MALME-3M melanoma
# [54] = test system: CAKI-1 renal
smiles,measurement,setting,value
O=C1/C(=C/c2ccccc2)CN(C(=O)CCN2CCC(=NO)CC2)C/C1=C\c1ccccc1,GI50,[1],1390 nM
same,TGI,[1],3270 nM
same,GI50,[2],1920 nM
same,TGI,[2],4700 nM
same,GI50,[3],1800 nM
same,TGI,[3],3580 nM
same,GI50,[4],1670 nM
same,TGI,[4],3900 nM
same,GI50,[5],2490 nM
same,TGI,[5],8680 nM
same,GI50,[6],320 nM
same,TGI,[6],1230 nM
same,GI50,[7],3090 nM
same,TGI,[7],14600 nM
same,GI50,[8],758 nM
same,TGI,[8],9330 nM
same,GI50,[9],1830 nM
same,TGI,[9],3470 nM
same,GI50,[10],355 nM
same,TGI,[10],1980 nM
same,GI50,[11],4560 nM
same,TGI,[11],16200 nM
same,GI50,[12],1560 nM
same,TGI,[12],2960 nM
same,GI50,[13],1790 nM
same,TGI,[13],3640 nM
same,GI50,[14],396 nM
same,TGI,[14],> 100000 nM
same,GI50,[15],663 nM
same,TGI,[15],2230 nM
same,GI50,[16],1640 nM
same,TGI,[16],2990 nM
same,GI50,[17],2080 nM
same,TGI,[17],4640 nM
same,GI50,[18],2510 nM
same,TGI,[18],7090 nM
same,GI50,[19],2810 nM
same,TGI,[19],9010 nM
same,GI50,[20],2850 nM
same,TGI,[20],11500 nM
same,GI50,[21],2150 nM
same,TGI,[21],4690 nM
same,GI50,[22],1690 nM
same,TGI,[22],3350 nM
same,GI50,[23],1890 nM
same,TGI,[23],4280 nM
same,GI50,[24],1860 nM
same,TGI,[24],4030 nM
same,GI50,[25],1630 nM
same,TGI,[25],3270 nM
same,GI50,[26],1510 nM
same,TGI,[26],3490 nM
same,GI50,[27],1660 nM
same,TGI,[27],3150 nM
same,GI50,[28],1600 nM
same,TGI,[28],3360 nM
same,GI50,[29],1310 nM
same,TGI,[29],3290 nM
same,GI50,[30],1680 nM
same,TGI,[30],3290 nM
same,GI50,[31],2590 nM
same,TGI,[31],8330 nM
same,GI50,[32],1830 nM
same,TGI,[32],4060 nM
same,GI50,[33],1400 nM
same,TGI,[33],2710 nM
same,GI50,[34],322 nM
same,TGI,[34],1300 nM
same,GI50,[35],2430 nM
same,TGI,[35],5830 nM
same,GI50,[36],1520 nM
same,TGI,[36],3870 nM
same,GI50,[37],1210 nM
same,TGI,[37],3610 nM
same,GI50,[38],366 nM
same,TGI,[38],1410 nM
same,GI50,[39],1730 nM
same,TGI,[39],3320 nM
same,GI50,[40],1980 nM
same,TGI,[40],4510 nM
same,GI50,[41],1500 nM
same,TGI,[41],3370 nM
same,GI50,[42],1850 nM
same,TGI,[42],3910 nM
same,GI50,[43],1700 nM
same,TGI,[43],3770 nM
same,GI50,[44],2030 nM
same,TGI,[44],6400 nM
same,GI50,[45],1800 nM
same,TGI,[45],3270 nM
same,GI50,[46],2380 nM
same,TGI,[46],7790 nM
same,GI50,[47],1420 nM
same,TGI,[47],3190 nM
same,GI50,[48],3050 nM
same,GI50,[49],1910 nM
same,TGI,[49],3850 nM
same,GI50,[50],2190 nM
same,TGI,[50],5290 nM
same,GI50,[51],686 nM
same,TGI,[51],11300 nM
same,GI50,[52],2680 nM
same,TGI,[52],7910 nM
same,GI50,[53],2010 nM
same,TGI,[53],5180 nM
same,GI50,[54],1610 nM
same,TGI,[54],3010 nM
